From paper PMC11455950, “Effects of SZV-2649, a new multiple ion channel inhibitor mexiletine analogue” (Scientific Reports, 2024)

How the values were obtained:
[1] = system: IKACh in dog atrial trabecular muscle preparations; assay: Action potential duration in carbachol-pretreated dog atrial trabecular muscle; conditions: 1 µM, 10 min
Experimental: The possible effect of SZV-2649 on IKACh was investigated in dog atrial trabecular muscle preparations. Carbachol (1 µM) was added to the tissue bath for 10 min to activate IKACh. […] Application of 10 µM SZV-2649 prolonged APD substantially to a greater degree (100%) than could be expected by its effect on repolarization in the absence of carbachol (10%) as shown in Table 1; Fig. 5D.
Action potentials were recorded in cardiac ventricular trabeculae and papillary muscle preparations obtained from the right ventricles of Beagle dogs (10–15 kg) of either sex using the conventional microelectrode technique. Dogs were sacrificed by iv. sedation with xylazine (1 mg/kg), followed by i.v. administration of 50 mg/kg pentobarbital. After the cornea reflex disapeared the chest was opened, and the heart was rapidly removed. […]
Isolated papillary muscle or atrial trabecula and Purkinje fiber preparations were obtained and prepared from the right ventricle and were individually mounted in a tissue chamber with the volume of 50 ml. […] Transmembrane potentials were recorded using conventional glass microelectrodes, filled with 3 M KCl and having tip resistances of 5–20 MΩ, connected to the input of a high impedance electrometer (Experimetria, type 309, Budapest, Hungary) which was coupled to a dual beam oscilloscope. […]

anesthetized rats = assay: Coronary artery occlusion/reperfusion-induced ventricular arrhythmias in anesthetized rats; format: in vivo, rat; conditions: for Effect on incidence of ventricular arrhythmias: 6 min coronary artery occlusion / 5 min reperfusion, i.v. 2 min before ischemia; for Incidence of ventricular fibrillation (VF): during reperfusion, over 50% in control animals; for Effect on heart rate: i.v. administration, anesthetized rats
Description: The effects of SZV-2649 were further studied in the acute ischemia-induced ventricular arrhythmia model in anasthetized rats. Mexiletine and dofetilide were used as reference compounds for comparison.
The surgical procedure was based on a modified method described in detail in Gömöri et al. (2020)[62]. Pentobarbital-anesthetized male Wistar-Hannover rats were mechanically ventilated and subjected to thoracic surgery to perform a 6-min coronary artery occlusion and 5-min of reperfusion for the development of ischemia-induced ventricular arrhythmias (see Fig. 6A). The right jugular vein was cannulated for the administration of SZV-2649, vehicle, mexiletine or dofetilide, and the right carotid artery was used to measure blood pressure. The three-lead electrocardiogram and body temperature were continuously registered. Ten to twelve rats per group were administered vehicle (dimethyl sulfoxide, 200 µL/kg) or the studied drugs (see above), 2 min before the onset of ischemia as a slow i.v. bolus injection through the right jugular vein. At the end of 5-min reperfusion, hearts were isolated, mounted onto a Langendorff perfusion system, and after re-occluding the coronary artery, were perfused with 5-mL of 70% ethanol via the ascending aorta to delineate the ischemic risk zone. Then the left ventricles were cut along the demarcation lines of denatured area, and the sections were weighed to determine the area of risk to normalize the extent of the ischaemic insult. We evaluated the occurrence of ventricular arrhythmias based on the recommendations of the modified Lambeth Conventions published previously by Curtis et al. (2013)[63].

anesthetized dogs = assay: Atrial fibrillation induced by carbachol infusion and burst stimulation in anesthetized dogs; format: in vivo, dog; design: key to AF converted to SR? / AF reinduced?: N, response not observed; Y, response observed; conditions: i.v. 0.3 mg/kg
Experimental: The effect of SZV-2649 was further investigated in carbachol-infused and programmed electrical stimulation-induced (i.e. 800/min atrial burst stimulation) acute atrial fibillation model in anesthetized dogs.
In the atrial fibrillation experiments, at least 5–6 dogs for control and test groups, (respectively) were used. Following 0.5 µg/kg sufentanyl premedication and […] i.v. pentobarbital anaesthesia induction, left thoracotomy was performed on all animals. Dogs were endotracheally intubated and mechanically ventilated (UGO Basile respirator; Biological Research Apparatus, Italy) Physiological parameters (non-invasive blood pressure, SpO2, ECG) were continuously monitored during surgery and experiments (InnoCare-VET Patient Care Monitor; Budapest, Hungary). The ECGs were recorded using precordial leads and were digitized and stored on a computer for off-line analysis using National Instruments data acquisition hardware (National Instruments, Austin, Texas, USA) and SPEL Advanced Haemosys software (version 3.2, MDE Heidelberg GmbH, Germany). Under pentobarbital anaesthesia, two pacemaker electrodes (Biotronik Solia S 60; Biotronik Ltd., Hungary) were positioned epicardially into the left atrial appendage and apex of the left ventricle, respectively, and electrodes were connected to pacemakers (Effecta D; Biotronik Hungary Ltd., Hungary). Pacemakers were programmed in VVI mode using Biotronik IC: 4808 A-Renamic programmer to prevent the potentially bradycardic effect of carbachol leading to hemodynamic instability. Atrial and ventricular thresholds were measured before AF induction in all animals. Ventricular and atrial pacing were set to three times the measured threshold. AF inducibility were tested in both groups using a control set (25 times) of 10-second-long rapid atrial bursts (800 beats/min, at threefold threshold). Following 25 atrial burst stimuli, 2 × 2 µg/kg loading dose of intravenous carbachol was administered followed by an 8 µg/kg/h maintenance dose. Atrial fibrillation was induced using 10-second-long atrial burst stimuli in the presence of carbachol in both groups of dogs. […] In these experiments, we investigated whether AF was converted to SR by the test drug(s). All intravenous infusions were performed using a programmable infusion pump (Terufusion TE-3; Terumo Europe, Leuven, Belgium).

| Structure (SMILES) | Effect on incidence of ventricular arrhythmias (anesthetized rats) | Incidence of ventricular fibrillation (VF) (anesthetized rats) [%] | Effect on heart rate (anesthetized rats) | other results |
| --- | --- | --- | --- | --- |
| C[N+](C)(C)CCOC(N)=O [carbachol, reference compound] |  |  |  | Effect on atrial repolarization [1]: substantially shortened |
| CN(CCOc1ccc(NS(C)(=O)=O)cc1)CCc1ccc(NS(C)(=O)=O)cc1 [dofetilide] | increased | 75 | significantly decreased |  |
| Cc1cccc(C)c1OCC(C)N (centres unmarked) [mexiletine] | showed some antiarrhythmic effects | 18 | significantly decreased |  |
| CCCNCC(O)COc1ccccc1C(=O)CCc1ccccc1 (centres unmarked) [propafenone, reference compound] |  |  |  | AF reinduced (number of the 25 burst stimuli) (anesthetized dogs; individual dogs, carbachol + burst): 1/25; AF reinduced? (anesthetized dogs; individual dogs, carbachol + burst, 0.3 mg/kg): N (-) and Y; Atrial fibrillation reinduced, share of burst stimuli (anesthetized dogs; whole group): 1.6%; Times atrial fibrillation was reinduced by the 25 burst stimuli delivered in each animal (anesthetized dogs; whole group): 2 times |
